{"source": "paper PMC10251984", "about": "“Interactions of IDO and the Kynurenine Pathway with Cell Transduction Systems and Metabolism at the Inflammation–Cancer Interface” (Cancers, 2023)", "origin": "cited, not measured here", "key": {"[1]": {"test_system": "IDO2", "parameters": "method as in PMID 29247038", "settings": "relative to the D-isomer"}, "[2]": {"test_system": "activated human CD4+T cells", "parameters": "method as in PMID 32641388", "settings": "each compound separately"}, "[3]": {"test_system": "multiple myeloma", "parameters": "method as in PMID 29089645, PMID 29487385"}, "[4]": {"test_system": "PD-L1", "settings": "disrupts the interaction between Myc and HIF-1α"}, "[5]": {"test_system": "Lewis lung carcinomas", "parameters": "method as in PMID 32847988", "settings": "combination with celecoxib"}, "[6]": {"test_system": "AHR", "parameters": "method as in PMID 34025677", "settings": "AHR antagonist; induction by kynurenine in CD8+ T cells"}, "[7]": {"test_system": "T cell activation", "parameters": "method as in PMID 35663990", "settings": "glutaminase inhibitor; autoimmune hepatitis"}, "[8]": {"test_system": "IDO1", "parameters": "method as in PMID 30227893, PMID 35269712", "settings": "IDO1 inhibitor; read-out: IC50 in direct enzyme assay"}, "[9]": {"test_system": "melanoma"}, "[10]": {"parameters": "method as in PMID 29040756, PMID 25330068"}, "[11]": {"test_system": "Metastatic prostate cancer", "settings": "combination with sipuleucel-T; Phase 2"}, "[12]": {"test_system": "Metastatic breast cancer", "settings": "compared with taxane; Phase 2"}, "[13]": {"test_system": "IDO", "parameters": "method as in PMID 32024760", "settings": "IDO activity enhanced"}, "[14]": {"test_system": "IDO1", "parameters": "method as in PMID 36389710"}, "[15]": {"test_system": "IDO2", "parameters": "method as in PMID 36389710"}, "[16]": {"test_system": "T cell", "parameters": "method as in PMID 31648326", "settings": "MEK inhibitor"}, "[17]": {"test_system": "IDO1", "parameters": "method as in PMID 28212885", "settings": "COX-2 inhibitor"}, "[18]": {"test_system": "experimental arthritis", "parameters": "method as in PMID 33941676", "settings": "IDO-dependent manner"}, "[19]": {"test_system": "PD-L1", "parameters": "method as in PMID 33220359"}, "[20]": {"test_system": "triple-negative breast cancer, colon and lung syngeneic tumor models", "parameters": "method as in PMID 35265193", "settings": "combined with an anti-PD-L1 antibody"}, "[21]": {"test_system": "PD-L1", "parameters": "method as in PMID 35120895", "settings": "via inhibition of the JAK–STAT–IRF1 pathway"}, "[22]": {"test_system": "IDO", "parameters": "method as in PMID 35120895", "settings": "via inhibition of the JAK–STAT–IRF1 pathway"}, "[23]": {"test_system": "IDO1", "settings": "COX-2 inhibition; IFNγ-induced"}}, "note": "pIC50: −log10 of the molar value. Read-outs that look alike come from different tables or passages of the source."}
{"compound": "Cn1cc(C[C@H](N)C(=O)O)c2ccccc21", "note": "(single isomer, unassigned; isomer 1) [L-isomer, 1-methyl-tryptophan]", "values": [{"measurement": "inhibiting IDO2", "setting": "[1]", "result": "much more active"}]}
{"compound": "O=CC[C@@H](O)[C@H](O)[C@H](O)CO", "note": "[2-deoxyglucose]", "values": [{"measurement": "IFNγ production", "setting": "[2]", "result": "inhibit IFNγ production"}]}
{"compound": "O=C(CCCCCCNC(=O)c1cnc(N(c2ccccc2)c2ccccc2Cl)nc1)NO", "note": "[ACY241]", "values": [{"measurement": "efficacy against multiple myeloma", "setting": "[3]", "result": "effective"}]}
{"compound": "C=C1C(=O)O[C@H]2C[C@@H](C)[C@@H]3[C@@H](OC(C)=O)C[C@H](O)[C@@]3(C)[C@@H](OC(C)=O)[C@H]12", "note": "[Britannin]", "values": [{"measurement": "expression of PD-L1", "setting": "[4]", "result": "reducing the expression of PD-L1"}]}
{"compound": "Nc1ncnc2c1ncn2[C@@H]1O[C@@H]2COP(=O)(O)O[C@H]3[C@@H](O)[C@H](n4cnc5c(N)ncnc54)O[C@@H]3COP(=O)(O)O[C@H]2[C@H]1O", "note": "[CDA, cyclic di-adenyl monophosphate]", "values": [{"measurement": "survival", "setting": "[5]", "result": "enhanced survival"}, {"measurement": "tumor growth", "setting": "[5]", "result": "controlled tumor growth"}]}
{"compound": "Cc1ccccc1N=Nc1ccc(NC(=O)c2ccnn2C)c(C)c1", "note": "[CH223191]", "values": [{"measurement": "induction of PD-1", "setting": "[6]", "result": "blocked the induction of PD-1"}]}
{"compound": "[N-]=[N+]=CC(=O)CC[C@H](N)C(=O)O", "note": "[DON, 6-diazo-5-oxo-L-norleucine]", "values": [{"measurement": "T cell activation", "setting": "[7]", "result": "inhibited T cell activation"}]}
{"compound": "NS(=O)(=O)NCCNc1nonc1C(=NO)Nc1ccc(F)c(Br)c1", "note": "[Epacadostat]", "values": [{"measurement": "pIC50", "setting": "[8]", "result": "[…]"}, {"measurement": "trial outcome", "setting": "[9]; combined with the PD-1 antagonist pembrolizumab", "result": "no significant benefit"}, {"measurement": "clinical efficacy", "setting": "[9]; randomized trial combined with pembrolizumab in patients with melanoma", "result": "clinically ineffective"}]}
{"compound": "O=Cc1c2[nH]c3ccccc3c2cc2[nH]c3ccccc3c12", "note": "[FICZ, 6-Formylindolo-[3,2-b]-carbazole]", "values": [{"measurement": "metabolism / removal", "setting": "[10]", "result": "rapidly removed"}]}
{"compound": "Cn1cc(C[C@@H](N)C(=O)O)c2ccccc21", "note": "[Indoximod, 1-methyl-D-tryptophan]", "values": [{"measurement": "trial outcome", "setting": "[11]", "result": "[224] Combination with sipuleucel-T yielded radiological and clinical improvement"}, {"measurement": "trial outcome", "setting": "[12]", "result": "[226] No improvement compared with taxane"}]}
{"compound": "CC(=O)NCCc1c[nH]c2ccc(O)cc12", "note": "[N-acetyl-5-hydroxy-tryptamine]", "values": [{"measurement": "mode of action on IDO activity", "setting": "[13]", "result": "positive allosteric modulator"}]}
{"compound": "CCCCCCCC1=Nc2ccccc2C(=O)C1O", "note": "(stereo not shown) [PQS, 2-heptyl-3-hydroxy-4-quinolone]", "values": [{"measurement": "expression of IDO1", "setting": "[14]", "result": "inhibits"}, {"measurement": "expression of IDO2", "setting": "[15]", "result": "inhibits"}]}
{"compound": "Clc1cc2c(cc1Cl)Oc1cc(Cl)c(Cl)cc1O2", "note": "[TCDD, 2,3,7,8-tetrachloro-dibenzo-dioxin]", "values": [{"measurement": "metabolism / removal", "setting": "[10]", "result": "poorly metabolized"}]}
{"compound": "CC(=O)Nc1cccc(-n2c(=O)n(C3CC3)c(=O)c3c(Nc4ccc(I)cc4F)n(C)c(=O)c(C)c32)c1", "note": "[Trametinib]", "values": [{"measurement": "T cell viability and proliferation", "setting": "[16]", "result": "promote T cell viability and proliferation"}]}
{"compound": "Cc1ccc(-c2cc(C(F)(F)F)nn2-c2ccc(S(N)(=O)=O)cc2)cc1", "note": "[celecoxib]", "values": [{"measurement": "induction of IDO1", "setting": "[17]", "result": "prevented the induction of IDO1"}]}
{"compound": "Nc1ncn([C@H]2C[C@H](O)[C@@H](CO)O2)c(=O)n1", "note": "[decitabine]", "values": [{"measurement": "occurrence of relapse", "setting": "[18]", "result": "prevented the occurrence of relapse"}, {"measurement": "symptoms of arthritis", "setting": "[18]", "result": "reduced the symptoms of arthritis"}]}
{"compound": "COc1ccc(CCc2cc(OC)c(OC)c(OC)c2)cc1O", "note": "[erianin]", "values": [{"measurement": "PD-L1 expression", "setting": "[19]", "result": "inhibited PD-L1 expression"}]}
{"compound": "CCCNS(=O)(=O)Nc1ncnc(OCCOc2ncc(Br)cn2)c1-c1ccc(Br)cc1", "note": "[macitentan]", "values": [{"measurement": "anti-tumor efficacy", "setting": "[20]", "result": "improved anti-tumor efficacy"}]}
{"compound": "CN(C)C(=N)N=C(N)N", "note": "[metformin]", "values": [{"measurement": "IFNγ production", "setting": "[2]", "result": "inhibit IFNγ production"}]}
{"compound": "O=c1c(O)c(-c2cc(O)c(O)c(O)c2)oc2cc(O)cc(O)c12", "note": "[myricetin]", "values": [{"measurement": "induction of PD-L1 by IFNγ", "setting": "[21]", "result": "prevent the induction"}, {"measurement": "induction of IDO by IFNγ", "setting": "[22]", "result": "prevent the induction"}]}
{"compound": "CS(=O)(=O)Nc1ccc([N+](=O)[O-])cc1Oc1ccccc1", "note": "[nimesulide]", "values": [{"measurement": "induction of IDO1", "setting": "[23]", "result": "prevented induction of IDO1"}]}
